Measured values taken from ChEMBL document CHEMBL4190392, “Enhancing Action of Positive Allosteric Modulators through the Design of Dimeric Compounds” (J Med Chem, 2018).

Molecular target: Glutamate receptor 2 (Homo sapiens, UniProt P42262)
Experiment: Positive allosteric modulation of GluA2Q flop isoform (unknown origin) expressed in HEK293 cells assessed as increase in L-glutamate induced calcium flux after 1 hr by fluo-4AM dye-based fluorescence assay
Format: cell-based

Chain of Glutamate receptor 2 (P42262 whole entry, canonical isoform): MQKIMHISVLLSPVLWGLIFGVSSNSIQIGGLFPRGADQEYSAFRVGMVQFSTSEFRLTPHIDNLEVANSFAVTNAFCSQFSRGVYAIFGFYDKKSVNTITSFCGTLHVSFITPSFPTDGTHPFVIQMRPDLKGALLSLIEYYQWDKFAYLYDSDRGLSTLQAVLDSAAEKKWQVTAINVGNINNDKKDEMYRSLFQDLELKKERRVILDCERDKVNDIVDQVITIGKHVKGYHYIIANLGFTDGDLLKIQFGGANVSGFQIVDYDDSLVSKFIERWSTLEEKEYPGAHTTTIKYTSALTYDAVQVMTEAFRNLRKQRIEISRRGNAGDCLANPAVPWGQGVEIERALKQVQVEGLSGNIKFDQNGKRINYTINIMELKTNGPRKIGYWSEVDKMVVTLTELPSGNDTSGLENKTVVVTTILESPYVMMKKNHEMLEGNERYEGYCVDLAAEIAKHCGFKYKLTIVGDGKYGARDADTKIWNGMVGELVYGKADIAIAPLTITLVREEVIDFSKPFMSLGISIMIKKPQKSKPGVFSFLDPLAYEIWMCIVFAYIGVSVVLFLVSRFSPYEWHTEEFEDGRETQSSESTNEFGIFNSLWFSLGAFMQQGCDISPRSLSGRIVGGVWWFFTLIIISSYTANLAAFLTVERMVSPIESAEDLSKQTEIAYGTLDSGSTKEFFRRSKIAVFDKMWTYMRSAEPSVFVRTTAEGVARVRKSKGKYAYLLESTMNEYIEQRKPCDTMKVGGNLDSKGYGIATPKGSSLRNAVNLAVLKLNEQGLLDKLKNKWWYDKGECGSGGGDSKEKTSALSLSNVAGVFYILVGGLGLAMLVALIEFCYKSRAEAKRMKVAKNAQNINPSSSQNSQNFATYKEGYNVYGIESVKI

Row | SMILES | EC50 (read-out: EC50) | EC50 (read-out: pEC50 (converted))
1 | CN1CNS(=O)(=O)c2ccccc21 | 176 µM | 
2 | O=S1(=O)NCN(C2CC2)c2cc(CCc3ccc4c(c3)N(C3CC3)CNS4(=O)=O)ccc21 | 0.0014 µM | 
3 | O=S1(=O)NCN(C2CC2)c2ccccc21 | 9.06 µM | 
4 | Cc1ccc2c(c1)N(C)CNS2(=O)=O | 403 µM | 
5 | CN1CNS(=O)(=O)c2ccc(CCc3ccc4c(c3)N(C)CNS4(=O)=O)cc21 | 0.0134 µM | 0.0145 µM
6 | Cc1ccc2c(c1)N(C1CC1)CNS2(=O)=O | 48.2 µM | 49 µM
